Patent publication US7445892B2, “Method of testing anticancer agent-sensitivity of tumor cells” (Eisai Co., Ltd., priority 2000, dated 2008)

Tested on: HCT116-C9
Assay: Gene expression analysis using DNA microarray (GeneChip Hu6800)
Type: cell-based, human
Details: HCT116-C9, 8 μM, 12 hours, compared with cells without drug; change of 1.8 times or more counted
Procedure: All cells were cultured in RPMI-1640 medium supplemented with 10% of fetal bovine serum, 100 units/ml of penicillin and 100 μg/ml of streptomycin at 37° C. under 5% CO2.
E7070, or ER-35748 or ER-68487 represented by the structural formula shown below was added to the media of an E7070-susceptible strain HCT116-C9 and an E7070-resistant strain HCT116-C9-C1 at a concentration of 8 μM and the cells were cultured. Then, cells were recovered after 0, 3, 6 and 12 hours. Further, the cells were also cultured for 12 hours without adding the drug and recovered.
Total RNA was extracted from these cells and subjected to the subsequent analyses. The RNA extracted from the cells cultured for 12 hours with the drug and the RNA from extracted the cells cultured for 12 hours without the drug were used for the gene expression analysis using a DNA microarray described in Example 2. HCT116-C9 was a substrain isolated from HCT116 derived from human colon cancer (American Type Culture Collection, Manassas, Va., U.S.A.), and HCT116-C9-C1 was an E7070-resistant substrain obtained by culturing this HCT116-C9 in the presence of E7070 with gradually increasing the E7070 concentration.
Total RNA was extracted from the recovered cells by using TRIZOL Reagent (Life Technologies Oriental) according to the attached operation manual.
Each RNA obtained in Example 1 was dissolved in 100 μl of sterilized water treated with diethyl pyrocarbonate (DEPC) and further purified by using RNeasy Column (QIAGEN), and double-stranded cDNA was synthesized by using SuperScript Choice System (Life Technologies Oriental) and a T7-d(T)24 primer.
First, to 10 μg of RNA, 5 μM T7-d(T)24 primer, 1×First strand buffer, 10 mM DTT, 500 μM dNTP mix and 20 units/μl of SuperScript II Reverse Transcriptase were added and the mixture was allowed to react at 42° C. for 1 hour to synthesize single-stranded DNA. Subsequently, to the DNA, 1×Second strand buffer, 200 μM dNTP mix, 67 U/ml of DNA ligase, 270 U/ml of DNA polymerase I and 13 U/ml of RNase H were added and the mixture was allowed to react at 16° C. for 2 hours to synthesize double-stranded cDNA. Further, to the cDNA, 67 U/ml of T4 DNA polymerase I was added and the mixture was allowed to react at 16° C. for 5 minutes and then 10 μl of 0.5 M EDTA was added to terminate the reaction.
The obtained cDNA was purified with phenol/chloroform, and a labeling reaction with biotinylated UTP and CTP was carried out by using RNA Transcript Labeling Kit (Enzo Diagnostics) according to the attached operation manual. The reaction product was purified with Rneasy Column and heated in 200 mM Tris/acetate buffer (pH 8.1), 150 mM magnesium acetate, 50 mM potassium acetate at 94° C. for 35 minutes to obtain fragment cRNA.
The fragmented cRNA was hybridized with GeneChip Hu6800 (Affymetrix) in 100 mM MES, 1 M sodium salt, 20 mM EDTA and 0.01% Tween 20 at 45° C. for 16 hours. After the hybridization, the GeneChip was washed and stained according to the protocol EukGE-WS2 attached to Affymetrix Fluidics Station. For the staining, streptavidin-phycoerythrin and biotinylated goat anti-streptavidin antibody were used. The stained GeneChip was scanned by using HP Argon Ion Laser Confocal Scanner (Hewlett Packard) to measure its fluorescence intensity. The fluorescence was measured at 570 nm by using an excitation light at 488 nm.
The quantitative data analyses were all conducted by using GeneChip Software (Affymetrix). To quantify RNA, an average of “differences [(Perfect match hybridization signal)−(Mismatch signal)]” was obtained for each probe family.
E7070, or ER-35748 or ER-68487 was added to a medium for HCT116-C9 at a concentration of 8 μM and culture was performed. The results of analysis of RNA extracted from the cells at 12 hours by using GeneChip were compared with the results of RNA analysis for HCT116-C9 cells obtained in the same manner except for not adding the drug. […]

SMILES	expression levels of the genes listed in Table 1	expression levels of the genes listed in Table 2
N#Cc1ccc(S(=O)(=O)Nc2cccc3c(Cl)c[nH]c23)cc1 [ER-35748]	increased	decreased
N#Cc1ccc(S(=O)(=O)Nc2cccc3c(C#N)c[nH]c23)cc1 [ER-68487]	increased	decreased
